Assay results reported in PubChem BioAssay AID507.

Test system: Human MGC4172 (short-chain dehydrogenase/reductase, DHRS11)
Experiment: DHRS11 SDR ligand binding via Tm shift – biophysical, DSF, SYPRO orange, recombinant human protein (AID 507)
Settings: DSF SYPRO orange thermal shift, at 100 µM, protein 2 µM, buffer 10 mM HEPES, pH 7.5, NaCl 150 mM, NADPH 200 µM, active compounds read high

Tm shift: 2.3 Celsius
Structure (SMILES): CN(CCOc1ccc(CC2SC(=O)NC2=O)cc1)c1ccccn1 (stereo unspecified)
